# Experimental data reported in patent publication US20070031336A1, “3H-phenoxazine derivatives suitable as near-infrared imaging agents, preparation an use thereof” (priority 2003, published 2007).
# Key:
# [1] = exc. 595 nm; cited from earlier work
# [2] = UV/VIS absorption spectra; format: physicochemical
# Protocol: (§1) UV/VIS and fluorescence spectra are recorded and analyzed. For UV/VIS spectra, a Lambda 19 spectrometer from Perkin Elmer equipped with cells of 1.000 cm pathlength is used. The scan rate is 120 nm/min. The fluorescence data are obtained on a Spex Fluorolog (I.S.A.) spectrometer equipped with a cooled R928 detector (Slit 1 mm). Quantum yields are determined by using Cresylviolett (exc. 595 nm, yield=0.54) as standard.
# [3] = Fluorescence spectra and quantum yield; format: physicochemical; settings: for Fluorescence φ (quantum yield): standard Cresylviolett
# Protocol: as §1
# [4] = system: AD plaques; test: In vivo near-infrared imaging in APP23 mice; set-up: species or system mouse; settings: female 16-months-old transgenic APP23 mice, 3 mg/kg i.v.
# Protocol: For in vivo near-infrared imaging, 10- to 24-months-old transgenic APP23 mice (3≦n≦5) and as control, non-transgenic APP23 mice of the same age (3≦n≦4) are injected intravenously (i.v.) into the tail-vein with 0.1, 1 and 3 mg/kg agent of invention (0.1, 1 and 3 mg/10 ml in 0.9% saline). Images are recorded 30, 60, 120 and 240 min after systemic administration.
# [5] = target: T1, aggregated Aβ peptide Aβ1-140 (Homo sapiens, UniProt P05067); test: Binding to aggregated Aβ in solution by differential fluorescence spectroscopy
# T1 construct: aggregated Aβ peptide Aβ1-140 in solution
# T1 sequence (P05067 672-711 limits assumed): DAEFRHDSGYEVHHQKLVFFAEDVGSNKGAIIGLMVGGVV
# Protocol: (§2) Binding of the agent of the invention (compound Ex. 3) to aggregated Aβ peptide Aβ1-140 in solution is investigated by differential fluorescence spectroscopy and thioflavine displacement. […] Difference spectra are recorded at different concentrations of the agent of the invention (compound Ex. 3) with the magnitude of the fluorescence shift being dependent on the concentration of aggregated Aβ. Saturation is observed at high concentrations of the agent of the invention (compound Ex. 3), and the Kd-value for the agent of the invention (compound Ex. 3) is estimated to be 0.2 μM. In another experiment, aggregated Aβ is incubated with thioflavine T, where fluorescence intensity at 460-560 nm (excitation 445 nm) represents thioflavine bound to aggregated Aβ.
# [6] = target: T2, aggregated Aβ (Homo sapiens, UniProt P05067); test: Thioflavine T displacement from aggregated Aβ; format: binding; settings: fluorescence 460-560 nm, excitation 445 nm
# T2 construct: aggregated Aβ peptide Aβ1-140 in solution
# T2 sequence (P05067 672-711 limits assumed): as above
# Protocol: as §2
Compound,Quantum yield of the standard [1],Absorption ε ([2]; solvent H2O) [I/Mcm],Absorption λmax ([2]; solvent H2O) [nm],Absorption ε ([2]; solvent methanol) [I/Mcm],Absorption λmax ([2]; solvent methanol) [nm],Absorption λmax ([2]; solvent mouse serum) [nm],Fluorescence λmax ([3]; solvent H2O) [nm],Fluorescence φ (quantum yield) ([3]; solvent H2O) [%],Fluorescence λmax ([3]; solvent methanol) [nm],Fluorescence φ (quantum yield) ([3]; solvent methanol) [%],Fluorescence λmax ([3]; solvent mouse serum) [nm],Fluorescence φ (quantum yield) ([3]; solvent mouse serum) [%],Specific binding to AD plaques (FIG. 1) [4],"Kd ([5]; estimated from difference spectra, saturation at high concentrations) [nM]",Change of fluorescence spectrum upon β-amyloid binding ([5]; range of 680-720 nm),Effect on fluorescence of thioflavine bound to aggregated Aβ [6],"Kd ([6]; thioflavine concentrations 0.37 μM-3 μM, read-out: apparent binding constants) [nM]"
N=c1ccc2nc3c(cc(N)c4ccccc43)oc-2c1 [Cresylviolett],0.54,–,–,–,–,–,–,–,–,–,–,–,–,–,–,–,–
"CC[N+]1=c2cc3c(cc2CCC1)=Nc1cc2c(cc1O3)N(C)CCO2.[Cl-] [Ex. 2, 8-Ethyl-4-methyl-2,3,4,9,10,11-hexahydro-1,6-dioxa-4,13-diaza-8-azonia-pentacen chloride]",–,56700,657,67430,649,658,677,24,677,61,677,28,–,–,–,–,–
"CN1CCOc2cc3c(cc21)Oc1cc2c(cc1=N3)OCC[N+]=2C.F[B-](F)(F)F [Ex. 3, 4,8-Dimethyl-3,8,9,10-tetrahydro-2H-1,6,11-trioxa-8,13-diaza-4-azonia-pentacen tetrafluoroborate]",–,61930,650,64570,644,650,670,37,670,61,670,41,specific binding,~200,slightly reduced fluorescence intensity,concentration-dependent fluorescence reduction,100 to 200
"CN1CCOc2cc3c(cc21)Oc1cc2c(cc1=N3)SCC[N+]=2C.[Cl-] [Ex. 4, 4,8-Dimethyl-2,3,9,10-tetrahydro-4H-1,6-dioxa-11-thia-4,13-diaza-8-azonia-pentacen chloride]",–,12880,665,13920,659,665,695,12,695,28,695,13,–,–,–,–,–
